{"source": "patent US10981913B2", "about": "“11C -labeled 06 -benzylguanine, pet probe capable of visualizing 06-methyl guanine methyl-transferase activity, and production method of the same” (NATIONAL CENTER FOR GERIATRICS AND GERONTOLOGY, priority 2016, dated 2021)", "key": {"stability in the plasma": {"assay": "stability in the plasma", "format": "in vitro ADME"}, "MGMT": {"biological_target": "T1, MGMT (Homo sapiens, UniProt P16455)", "T1 sequence (P16455 1-207)": "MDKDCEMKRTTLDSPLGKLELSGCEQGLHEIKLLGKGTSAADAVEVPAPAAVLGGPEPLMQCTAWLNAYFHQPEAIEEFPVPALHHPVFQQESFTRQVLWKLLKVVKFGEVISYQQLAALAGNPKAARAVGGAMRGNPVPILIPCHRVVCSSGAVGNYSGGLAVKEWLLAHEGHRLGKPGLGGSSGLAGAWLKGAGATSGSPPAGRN", "assay": "enzyme inhibitory activity against MGMT using fluorescent labeled oligonucleotide substrates", "format": "biochemical", "conditions": "FIG. 1", "source_text": "The introduction position of the [^11C] methyl group of the benzene ring present in the above-mentioned O^6-benzylguanine (1) was investigated. […] Erickson, K. D. Miller, B. H. Mock, B. E. Glick-Wilsob, W. L. Winkel, K. L. Stone, K. A. Carlson, Synth. Commun. 2003, 33, 941-952."}, "[1]": {"assay": "Pharmacokinetics test using rats (brain permeability, blood and brain tissue by HPLC)", "format": "in vivo, Sprague-Dawley rats", "conditions": "rat; for concentration at 32 min / concentration at 44 min / Kp at 30 min / Kp / concentration at 30 min / Kp at 0.5 h: Sprague-Dawley, iv; for concentration at 32 min / concentration at 44 min / Kp at 30 min / Kp / concentration at 30 min / Kp at 0.5 h / Brain/Plasma ratio / Conc. HPLC (concentration of compound in brain homogenate) / Conc. brain: 10 mg/kg; for Kp at 30 min / concentration of the compound in the brain based on the total dose: 30 minutes after administration; for Kp at 30 min: read-out: ratio of brain concentration to the concentration in the plasma; for Kp: plasma 30 min; for metabolism after intravenous administration (plasma concentration of compound and metabolites over time): i.v., FIGS. 7 to 9; for Brain/Plasma ratio / Conc. HPLC (concentration of compound in brain homogenate) / Conc. brain: listed as mMeBG (2)", "protocol": "Regarding O^6-(3-methylbenzyl) guanine (2) and O^6-(4-methylbenzyl) guanine (3) not labeled with ^11C synthesized by the above method (that is, cold), brain permeability was evaluated by the following method.\nAfter intravenous administration (10 mg/kg) of O^6-(3-methylbenzyl) guanine (2) or O^6-(4-methylbenzyl) guanine (3) to Sprague-Dawley rats, blood and brain tissues were collected after a predetermined time, and analyzed by HPLC."}, "[2]": {"conditions": "brain homogenate, i.v. 10 mg/kg, under anaesthesia, fasting, read-out: Conc. HPLC (concentration of compound in brain homogenate)"}, "[3]": {"conditions": "brain, i.v. 10 mg/kg, under anaesthesia, fasting, read-out: Conc. brain"}, "[4]": {"conditions": "i.v. 10 mg/kg, 30 min, under anaesthesia, fasting, individual animals"}, "[5]": {"conditions": "i.v. 10 mg/kg, 30 min, under anaesthesia, nonfasting, individual animals"}, "[6]": {"conditions": "i.v. 10 mg/kg, 30 min, under nonanaesthesia, fasting, individual animals"}}, "note": "Values joined by “and” are separate entries in the source; they are usually repeats but may differ in a detail not shown here. Equal values may be shown once. “Also recorded” adds a separate entry of the source. Read-outs that look alike come from different tables or passages of the source.", "data": [{"smiles": "Cc1ccc(COc2nc(N)nc3nc[nH]c23)cc1", "note": "[Compound 3, O^6-(4-methylbenzyl) guanine]", "values": [{"measurement": "stability in the plasma", "setting": "stability in the plasma", "result": "stably exist in the plasma"}, {"measurement": "MGMT inhibitory effect compared with O^6-benzylguanine (1)", "setting": "MGMT", "result": "MGMT inhibitory effect similar to O^6-benzylguanine (1); also recorded: slightly higher inhibitory activity than O^6-BG (1)"}, {"measurement": "concentration at 32 min", "setting": "[1]; [2]", "result": 231, "unit": "ng/mL"}, {"measurement": "concentration at 44 min", "setting": "[1]; [2]", "result": 118, "unit": "ng/mL"}, {"measurement": "Kp at 30 min", "setting": "[1]; brain, i.v. 10 mg/kg", "result": 0.3}, {"measurement": "concentration at 32 min", "setting": "[1]; [3]", "result": 959, "unit": "ng/mL"}, {"measurement": "concentration at 44 min", "setting": "[1]; [3]", "result": 470, "unit": "ng/mL"}, {"measurement": "Kp", "setting": "[1]; brain, i.v. 10 mg/kg, brain 32 min, under anaesthesia, fasting, read-out: Brain/Plasma ratio", "result": 0.386}, {"measurement": "Kp", "setting": "[1]; brain, i.v. 10 mg/kg, brain 44 min, under anaesthesia, fasting, read-out: Brain/Plasma ratio", "result": 0.189}, {"measurement": "concentration at 30 min", "setting": "[1]; plasma, average (n = 3), 30 min after i.v. 10 mg/kg of 3, rat under anaesthesia and fasting, other rats than brain sample, read-out: Conc. Plasma", "result": 2480, "unit": "ng/mL"}, {"measurement": "accumulation in the brain", "setting": "[1]; i.v. 10 mg/kg", "result": "accumulated in the brain"}, {"measurement": "concentration of the compound in the brain based on the total dose", "setting": "[1]; i.v. 10 mg/kg", "result": 0.1, "unit": "%"}, {"measurement": "metabolism after intravenous administration (plasma concentration of compound and metabolites over time)", "setting": "[1]", "result": "quickly metabolized to unknown, more polar compounds within 240 minutes"}]}, {"smiles": "Cc1cccc(COc2nc(N)nc3nc[nH]c23)c1", "note": "[Compound 2, O^6-(3-methylbenzyl) guanine]", "values": [{"measurement": "stability in the plasma", "setting": "stability in the plasma", "result": "stably exist in the plasma"}, {"measurement": "MGMT inhibitory effect compared with O^6-benzylguanine (1)", "setting": "MGMT", "result": "MGMT inhibitory effect similar to O^6-benzylguanine (1); also recorded: slightly higher inhibitory activity than O^6-BG (1)"}, {"measurement": "concentration at 30 min", "setting": "[1]; brain homogenate, i.v. 10 mg/kg, 30 min, under anaesthesia, fasting, average, read-out: Conc. HPLC (brain homogenate), Ave.", "result": 513, "unit": "ng/mL"}, {"measurement": "concentration at 30 min", "setting": "[1]; brain homogenate, i.v. 10 mg/kg, 30 min, under anaesthesia, fasting, individual animals, read-out: Conc. HPLC (concentration of compound in brain homogenate)", "result": 568, "unit": "ng/mL"}, {"measurement": "concentration at 30 min", "setting": "[1]; brain homogenate, i.v. 10 mg/kg, 30 min, under anaesthesia, nonfasting, average, read-out: Conc. HPLC (brain homogenate), Ave.", "result": 663, "unit": "ng/mL"}, {"measurement": "concentration at 30 min", "setting": "[1]; brain homogenate, i.v. 10 mg/kg, 30 min, under anaesthesia, nonfasting, individual animals, read-out: Conc. HPLC (concentration of compound in brain homogenate)", "result": 784, "unit": "ng/mL"}, {"measurement": "concentration at 30 min", "setting": "[1]; brain homogenate, i.v. 10 mg/kg, 30 min, under nonanaesthesia, fasting, average, read-out: Conc. HPLC (brain homogenate), Ave.", "result": 523, "unit": "ng/mL"}, {"measurement": "concentration at 30 min", "setting": "[1]; brain homogenate, i.v. 10 mg/kg, 30 min, under nonanaesthesia, fasting, individual animals, read-out: Conc. HPLC (concentration of compound in brain homogenate)", "result": 536, "unit": "ng/mL"}, {"measurement": "Kp at 0.5 h", "setting": "[1]; brain, i.v. 10 mg/kg, 30 min, under anaesthesia, fasting, average, read-out: Brain/Plasma ratio, Ave.", "result": 0.303}, {"measurement": "concentration at 30 min", "setting": "[1]; brain, i.v. 10 mg/kg, 30 min, under anaesthesia, fasting, average, read-out: Conc. brain, Ave.", "result": 1350, "unit": "ng/mL"}, {"measurement": "Kp at 0.5 h", "setting": "[1]; brain, i.v. 10 mg/kg, 30 min, under anaesthesia, fasting, individual animals, read-out: Brain/Plasma ratio", "result": 0.336}, {"measurement": "concentration at 30 min", "setting": "[1]; brain, i.v. 10 mg/kg, 30 min, under anaesthesia, fasting, individual animals, read-out: Conc. brain", "result": 1500, "unit": "ng/mL"}, {"measurement": "Kp at 0.5 h", "setting": "[1]; brain, i.v. 10 mg/kg, 30 min, under anaesthesia, nonfasting (plasma value from anaesthesia, fasting rats), average, read-out: Brain/Plasma ratio, Ave.", "result": 0.373}, {"measurement": "Kp at 0.5 h", "setting": "[1]; brain, i.v. 10 mg/kg, 30 min, under anaesthesia, nonfasting (plasma value from anaesthesia, fasting rats), individual animals, read-out: Brain/Plasma ratio", "result": 0.425}, {"measurement": "concentration at 30 min", "setting": "[1]; brain, i.v. 10 mg/kg, 30 min, under anaesthesia, nonfasting, average, read-out: Conc. brain, Ave.", "result": 1660, "unit": "ng/mL"}, {"measurement": "concentration at 30 min", "setting": "[1]; brain, i.v. 10 mg/kg, 30 min, under anaesthesia, nonfasting, individual animals, read-out: Conc. brain", "result": 1890, "unit": "ng/mL"}, {"measurement": "Kp at 0.5 h", "setting": "[1]; brain, i.v. 10 mg/kg, 30 min, under nonanaesthesia, fasting, average, read-out: Brain/Plasma ratio, Ave.", "result": 0.265}, {"measurement": "concentration at 30 min", "setting": "[1]; brain, i.v. 10 mg/kg, 30 min, under nonanaesthesia, fasting, average, read-out: Conc. brain, Ave.", "result": 1380, "unit": "ng/mL"}, {"measurement": "Kp at 0.5 h", "setting": "[1]; brain, i.v. 10 mg/kg, 30 min, under nonanaesthesia, fasting, individual animals, read-out: Brain/Plasma ratio", "result": 0.27}, {"measurement": "concentration at 30 min", "setting": "[1]; brain, i.v. 10 mg/kg, 30 min, under nonanaesthesia, fasting, individual animals, read-out: Conc. brain", "result": 1400, "unit": "ng/mL"}, {"measurement": "Kp at 30 min", "setting": "[1]; brain, i.v. 10 mg/kg", "result": 0.3}, {"measurement": "concentration at 30 min", "setting": "[1]; plasma, average (n = 3), 30 min after i.v. 10 mg/kg of 2, rat under nonanaesthesia and fasting, other rats than brain sample, read-out: Conc. Plasma", "result": 5190, "unit": "ng/mL"}, {"measurement": "concentration at 30 min", "setting": "[1]; plasma, average (n = 5), 30 min after i.v. 10 mg/kg of 2, rat under anaesthesia and fasting, other rats than brain sample, read-out: Conc. Plasma", "result": 4450, "unit": "ng/mL"}, {"measurement": "accumulation in the brain", "setting": "[1]; i.v. 10 mg/kg", "result": "accumulated in the brain"}, {"measurement": "Brain/Plasma ratio", "setting": "[1]; [4]", "result": "0.275 and 0.298"}, {"measurement": "Conc. HPLC (concentration of compound in brain homogenate)", "setting": "[1]; [4]", "result": "464 ng/mL and 507 ng/mL"}, {"measurement": "Conc. brain", "setting": "[1]; [4]", "result": "1223 ng/mL and 1325 ng/mL"}, {"measurement": "Brain/Plasma ratio", "setting": "[1]; i.v. 10 mg/kg, 30 min, under anaesthesia, nonfasting (plasma value from anaesthesia, fasting rats), individual animals", "result": "0.398 and 0.296"}, {"measurement": "Conc. HPLC (concentration of compound in brain homogenate)", "setting": "[1]; [5]", "result": "684 ng/mL and 522 ng/mL"}, {"measurement": "Conc. brain", "setting": "[1]; [5]", "result": "1772 ng/mL and 1318 ng/mL"}, {"measurement": "Brain/Plasma ratio", "setting": "[1]; [6]", "result": "0.315 and 0.255 and 0.249 and 0.229 and 0.277"}, {"measurement": "Conc. HPLC (concentration of compound in brain homogenate)", "setting": "[1]; [6]", "result": "635 ng/mL and 474 ng/mL and 481 ng/mL and 454 ng/mL and 555 ng/mL"}, {"measurement": "Conc. brain", "setting": "[1]; [6]", "result": "1634 ng/mL and 1323 ng/mL and 1291 ng/mL and 1188 ng/mL and 1436 ng/mL"}, {"measurement": "concentration of the compound in the brain based on the total dose", "setting": "[1]; i.v. 10 mg/kg", "result": 0.1, "unit": "%"}, {"measurement": "metabolism after intravenous administration (plasma concentration of compound and metabolites over time)", "setting": "[1]", "result": "more stable than the compound (3) and was present for a long time"}]}]}
